This is an account of results in patent US11053226B2, “KRAS G12C inhibitors and methods of using the same” (Amgen Inc., priority 2018, dated 2021).

Read-outs that look alike come from different tables or passages of the source.

In experiment [1] the target is GDP-bound KRAS protein (aa 1-169), containing both G12C and C118A amino acid substitutions (Homo sapiens (Human), UniProt P01116, C118A/G12C). Nature of the experiment: Coupled Nucleotide Exchange Assay. The class given is biochemical. On the procedure:
(§1) For compounds in Table 9, the following assay conditions were employed:
Coupled Nucleotide Exchange Assay:
The assay plates were then read on a PerkinElmer EnVision Multilabel Reader, using AlphaScreen® technology, and data were analyzed using a 4-parameter logistic model to calculate IC50 values.

Experiment [2] concerns Phosphorylation of ERK1/2 in MIA PaCa-2 cells. Nature of the experiment: Phospho-ERK1/2 MSD Assay. The format is cell-based. Particulars: MiaPaCa-2 cells. As to the method: as §1
Phospho-ERK1/2 MSD Assay:
Sixteen hours prior to compound treatment, MIA PaCa-2 cells were seeded in 96-well cell culture plates at a density of 25,000 cells/well and incubated at 37° C., 5% CO2. […] Following compound treatment, cells were stimulated with 10 ng/mL EGF (Roche 11376454001) for 10 min, washed with ice-cold Dulbecco's phosphate-buffered saline, no Ca^2+ or Mg^2+ (ThermoFisher Scientific 14190144), and then lysed in RIPA buffer (50 mM Tris-HCl pH 7.5, 1% Igepal, 0.5% sodium deoxycholate, 150 mM NaCl, and 0.5% sodium dodecyl sulfate) containing protease inhibitors (Roche 4693132001) and phosphatase inhibitors (Roche 4906837001). […] Assay plates were read on a Meso Scale Discovery Sector Imager 6000, and data were analyzed using a 4-parameter logistic model to calculate IC50 values.

Experiment [3] has as its system Phosphorylation of ERK1/2 in A549 cells. The experiment is described as follows: Phospho-ERK1/2 MSD Assay (A549). The class given is cell-based.
Setting [4] is: read-out: Coupled Exchange IC50 (2 h), 2 h compound pre-incubation.
The mark [5] stands for this setting: Homo sapiens, MIA PaCa-2, 4 h, read-out: pERK IC50 (4 h, MiaPaCa-2), 4 h compound treatment.
The mark [6] stands for this setting: Homo sapiens, A549, 4 h, read-out: pERK IC50 (4 h, A549), 4 h compound treatment.
Setting [7] is: read-out: Coupled Exchange IC50 (5 min), 5 min compound pre-incubation.
The mark [8] stands for this setting: read-out: Coupled Exchange IC50 (20 h), 20 h compound pre-incubation.
Setting [9] is: Homo sapiens, MIA PaCa-2, read-out: pERK IC50 (4 h), 4 h compound treatment.
Setting [10] is: Homo sapiens, read-out: pERK IC50 (4 h), 4 h compound treatment.

GDP-bound KRAS protein (aa 1-169), containing both G12C and C118A amino acid substitutions, sequence (P01116 other isoform, or with tags, fused parts or gaps G12C/C118A): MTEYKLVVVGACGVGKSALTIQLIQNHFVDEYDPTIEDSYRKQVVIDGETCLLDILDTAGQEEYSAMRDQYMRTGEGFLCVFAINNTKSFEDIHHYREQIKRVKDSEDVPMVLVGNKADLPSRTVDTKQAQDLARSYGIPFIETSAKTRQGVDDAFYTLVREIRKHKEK

For the compound `C=CC(=O)N1CC(NC(=O)Cn2c(CC)c(C(=O)N3CCN(c4ccc(C#N)cn4)C[C@H]3C)c3cc(Cl)cc(C)c32)C1` [Example 1-3, 2-(5-Chloro-3-(((2R)-4-(5-cyano-2-pyridinyl)-2-methyl-1-piperazinyl)carbonyl)-2-ethyl-7-methyl-1H-indol-1-yl)-N-(1-(2-propenoyl)-3-azetidinyl)acetamide], the IC50 in experiment [1] (setting [4]) was 0.15 µM; in experiment [2] (setting [5]), 1.31 µM; in experiment [3] (setting [6]), above 100 µM.

Turning to `C=CC(=O)N1CC(NC(=O)Cn2c(C3CC3)c(C(=O)N3CCc4c(ccnc4OC)C3)c3cc(Cl)cc(C)c32)C1` [Example 1-4, 2-(5-Chloro-2-cyclopropyl-3-((5-methoxy-3,4-dihydro-2,6-naphthyridin-2(1H)-yl)carbonyl)-7-methyl-1H-indol-1-yl)-N-(1-(2-propenoyl)-3-azetidinyl)acetamide], the 50% inhibitory concentration (IC50) in experiment [1] (setting [7]) is 0.27 µM; in experiment [1] (setting [4]) it was 0.08 µM; in experiment [1] (setting [8]), 0.01 µM; in experiment [2] (setting [5]) it was 0.15 µM; in experiment [3] (setting [6]) it was above 100 µM.

On to `C=CC(=O)N1CC(NC(=O)Cn2c(CC3CC3)c(C(=O)N3CCc4c(cccc4OC)C3)c3cc(Cl)cc(C)c32)C1` [Example 1-5, 2-(5-Chloro-2-(cyclopropylmethyl)-3-((5-methoxy-3,4-dihydro-2(1H)-isoquinolinyl)carbonyl)-7-methyl-1H-indol-1-yl)-N-(1-(2-propenoyl)-3-azetidinyl)acetamide], for which the IC50 in experiment [1] (setting [4]) was 0.08 µM; in experiment [2] (setting [5]) it was 0.15 µM; in experiment [3] (setting [6]), above 100 µM.

Turning to `C=CC(=O)N1CC(NC(=O)Cn2c(C3CC3)c(C(=O)N3CCOC4(CCC4)C3)c3cc(Cl)cc(C)c32)C1` [Example 1-6, 2-(5-Chloro-2-cyclopropyl-7-methyl-3-(5-oxa-8-azaspiro[3.5]nonan-8-ylcarbonyl)-1H-indol-1-yl)-N-(1-(2-propenoyl)-3-azetidinyl)acetamide], the IC50 was 0.72 µM in experiment [1] (setting [4]), 0.67 µM in experiment [2] (setting [5]) and above 100 µM in experiment [3] (setting [6]).

Take `C=CC(=O)N1CC(NC(=O)Cn2c(C)c(C(=O)N3CCc4c(cccc4OC)C3)c3cc(Br)cc(C)c32)C1` [Example 2-1, 2-(5-Bromo-3-((5-methoxy-3,4-dihydro-2(1H)-isoquinolinyl)carbonyl)-2,7-dimethyl-1H-indol-1-yl)-N-(1-(2-propenoyl)-3-azetidinyl)acetamide]: the IC50 is 0.11 µM in experiment [1] (setting [4]), 0.11 µM in experiment [1] (setting [8]), 0.3 µM in experiment [2] (setting [5]) and above 100 µM in experiment [3] (setting [6]).

Turning to `C=CC(=O)N1CC(NC(=O)Cn2c(C)c(C(=O)N3CCc4ccccc4[C@H]3C)c3cc(Br)cc(C)c32)C1` [Example 2-2-1, 2-(5-Bromo-2,7-dimethyl-3-(((1R)-1-methyl-3,4-dihydro-2(1H)-isoquinolinyl)carbonyl)-1H-indol-1-yl)-N-(1-(2-propenoyl)-3-azetidinyl)acetamide], the IC50 in experiment [1] (setting [4]) came out at 0.16 µM; in experiment [2] (read-out: pERK IC50 (4 h, MiaPaCa-2), 4 h compound treatment), 0.56 µM; in experiment [3] (read-out: pERK IC50 (4 h, A549), 4 h compound treatment), 47 µM.

In the case of `C=CC(=O)N1CC(NC(=O)Cn2c(C)c(C(=O)N3CCc4ccccc4[C@@H]3C)c3cc(Br)cc(C)c32)C1` [Example 2-2-2, 2-(5-Bromo-2,7-dimethyl-3-(((1S)-1-methyl-3,4-dihydro-2(1H)-isoquinolinyl)carbonyl)-1H-indol-1-yl)-N-(1-(2-propenoyl)-3-azetidinyl)acetamide], the IC50 in experiment [1] (setting [4]) stood at 0.42 µM; in experiment [2] (setting [5]), 3.01 µM; in experiment [3] (setting [6]), 61 µM.

As for `C=CC(=O)N1CC(NC(=O)Cn2c(C3CC3)c(C(=O)N3CCc4c(cccc4OC)C3)c3cc(Br)ccc32)C1` [Example 3-2, 2-(5-Bromo-2-cyclopropyl-3-((5-methoxy-3,4-dihydro-2(1H)-isoquinolinyl)carbonyl)-1H-indol-1-yl)-N-(1-(2-propenoyl)-3-azetidinyl)acetamide], the values for the IC50 in experiment [1] (setting [4]), in experiment [2] (setting [5]) and in experiment [3] (setting [6]) were 0.14 µM, 0.6 µM and 52.6 µM, respectively.

In the case of `C=CC(=O)N1CC(N(C)C(=O)Cn2c(CC)c(C(=O)N3CCc4c(ccnc4OC)C3)c3cc(Cl)cc(C)c32)C1` [Example 4-1, 2-(5-Chloro-2-ethyl-3-((5-methoxy-3,4-dihydro-2,6-naphthyridin-2(1H)-yl)carbonyl)-7-methyl-1H-indol-1-yl)-N-methyl-N-(1-(2-propenoyl)-3-azetidinyl)acetamide], the 50% inhibitory concentration (IC50) is 0.12 µM in experiment [1] (setting [4]), 0.13 µM in experiment [2] (setting [5]) and above 100 µM in experiment [3] (setting [6]).

In the case of `C=CC(=O)N1CC(N(C)C(=O)Cn2c(CC)c(C(=O)N3CCc4c(cccc4OC)C3)c3cc(Cl)cc(C)c32)C1` [Example 4-2, 2-(5-Chloro-2-ethyl-3-((5-methoxy-3,4-dihydro-2(1H)-isoquinolinyl)carbonyl)-7-methyl-1H-indol-1-yl)-N-methyl-N-(1-(2-propenoyl)-3-azetidinyl)acetamide], the IC50 was 0.15 µM in experiment [1] (setting [4]), 0.21 µM in experiment [2] (setting [5]) and above 100 µM in experiment [3] (setting [6]).

In the case of `C=CC(=O)N1CC(N(C)C(=O)Cn2c(C3CC3)c(C(=O)N3CCc4c(cccc4OC)C3)c3cc(Cl)cc(C)c32)C1` [Example 4-3, 2-(5-Chloro-2-cyclopropyl-3-((5-methoxy-3,4-dihydro-2(1H)-isoquinolinyl)carbonyl)-7-methyl-1H-indol-1-yl)-N-methyl-N-(1-(2-propenoyl)-3-azetidinyl)acetamide], the half-maximal inhibitory concentration (IC50) in experiment [1] (setting [4]) stood at 0.12 µM; in experiment [2] (setting [5]), 0.15 µM; in experiment [3] (setting [6]), 74.1 µM.

`C=CC(=O)N1CC(N(C)C(=O)Cn2c(CC3CC3)c(C(=O)N3CCc4c(cccc4OC)C3)c3cc(Cl)cc(C)c32)C1` [Example 4-4, 2-(5-Chloro-2-(cyclopropylmethyl)-3-((5-methoxy-3,4-dihydro-2(1H)-isoquinolinyl)carbonyl)-7-methyl-1H-indol-1-yl)-N-methyl-N-(1-(2-propenoyl)-3-azetidinyl)acetamide]: the IC50 was determined as 0.1 µM in experiment [1] (setting [4]), 0.18 µM in experiment [2] (setting [5]) and 29.3 µM in experiment [3] (setting [6]).

Regarding `C=CC(=O)N1CC(N(C)C(=O)Cn2c(C)c(C(=O)N3CCc4c(cccc4OC)C3)c3cc(Br)cc(C)c32)C1` [Example 4-5, 2-(5-Bromo-3-((5-methoxy-3,4-dihydro-2(1H)-isoquinolinyl)carbonyl)-2,7-dimethyl-1H-indol-1-yl)-N-methyl-N-(1-(2-propenoyl)-3-azetidinyl)acetamide], the IC50 in experiment [1] (setting [4]) is 0.09 µM; in experiment [2] (setting [5]) it was 0.27 µM; in experiment [3] (setting [6]) it was above 100 µM.

In the case of `C=CC(=O)N1CC(N(C)C(=O)Cn2c(CC)c(C(=O)N3CCN(c4ccc(C#N)cn4)C[C@H]3C)c3cc(Cl)cc(C)c32)C1` [Example 4-6, 2-(5-Chloro-3-(((2R)-4-(5-cyano-2-pyridinyl)-2-methyl-1-piperazinyl)carbonyl)-2-ethyl-7-methyl-1H-indol-1-yl)-N-methyl-N-(1-(2-propenoyl)-3-azetidinyl)acetamide], the concentration for half-maximal inhibition (IC50) in experiment [1] (setting [4]) is 0.13 µM; in experiment [2] (setting [5]), 0.73 µM; in experiment [3] (setting [6]), 86.2 µM.

`C=CC(=O)N1CC(NC(=O)Cn2c(C)c(-c3cnccc3C(C)C)c3cc(Cl)ccc32)C1` [Example 5-1, 2-(5-Chloro-2-methyl-3-(4-(2-propanyl)-3-pyridinyl)-1H-indol-1-yl)-N-(1-(2-propenoyl)-3-azetidinyl)acetamide]: the IC50 was 0.78 µM in experiment [1] (setting [4]), 1.32 µM in experiment [2] (setting [9]) and above 100 µM in experiment [3] (setting [10]).

As to `C=CC(=O)N1CC(NC(=O)Cn2c(C)c(-c3cncnc3C(C)C)c3cc(Cl)ccc32)C1` [Example 5-2, 2-(5-Chloro-2-methyl-3-(4-(2-propanyl)-5-pyrimidinyl)-1H-indol-1-yl)-N-(1-(2-propenoyl)-3-azetidinyl)acetamide], the IC50 was 1.05 µM in experiment [1] (setting [4]), 1.49 µM in experiment [2] (setting [9]) and above 100 µM in experiment [3] (setting [10]).

Take `C=CC(=O)N1CC(NC(=O)Cn2c(C)c(-c3ccccc3C(C)C)c3cc(Cl)ccc32)C1` [Example 5-3, 2-(5-Chloro-2-methyl-3-(2-(2-propanyl)phenyl)-1H-indol-1-yl)-N-(1-(2-propenoyl)-3-azetidinyl)acetamide]: the half-maximal inhibitory concentration (IC50) in experiment [1] (setting [7]) was 4.11 µM; in experiment [1] (setting [4]), 0.63 µM; in experiment [1] (setting [8]) it was 0.22 µM; in experiment [2] (setting [9]) it was 2.06 µM; in experiment [3] (setting [10]), above 33.3 µM.

As to `C=CC(=O)N1CC(NC(=O)Cn2c(C)c(-c3ccccc3N3CCCC3)c3cc(Cl)ccc32)C1` [Example 5-4, 2-(5-Chloro-2-methyl-3-(2-(1-pyrrolidinyl)phenyl)-1H-indol-1-yl)-N-(1-(2-propenoyl)-3-azetidinyl)acetamide], the IC50 is 0.38 µM in experiment [1] (setting [4]), 5.49 µM in experiment [2] (setting [9]) and above 100 µM in experiment [3] (setting [10]).

For the compound `C=CC(=O)N1CC(NC(=O)Cn2c(C)c(C(=O)N3CCc4c(cccc4OC)C3)c3cc(C)cc(C)c32)C1` [Example 6], the values for the IC50 in experiment [1] (setting [4]), in experiment [2] (setting [5]) and in experiment [3] (setting [6]) were 0.34 µM, 1.12 µM and above 100 µM, respectively.

For orientation: IC50 means the concentration that gives 50% inhibition.
